According to US20240108570A1, “METHOD AND COMPOSITION FOR DELIVERING A COMPOUND THROUGH A BIOLOGICAL BARRIER” (priority 2012, published 2024):

Key:
[1] = tested on: freshly excised, non-diseased human skin; type: in vitro ADME
Method: The results are illustrated in FIGS. 5 to 8.
FIGS. 7 and 8 illustrate the effect of application forces on the penetration of sodium fluorescein in conjunction with ‘long’ EMPs. Measurements were made 15 minutes after application to freshly excised, non-diseased human skin (from female, Caucasian, abdominal plastic surgery patients). […] Application forces of 0.2N, 5N and 10N were all applied using a gloved finger on a scale. The excised skin is place on the scale and the finger is applied to the EMPs/skin until a weight is achieved on the scale corresponding to either 0.2, 5 or 10 N.) All forces are effective in improving penetration of sodium fluorescein into the stratum spinosum. There was an apparent optimum application force of 5N under the conditions of the tests.

[2] = tested on: ex vivo pig skin; type: in vitro ADME
Method: FIG. 12 represents comparison of delivery of sodium fluorescein to ex vivo pig skin. Pig skin was sourced and prepared for drug treatment as described for FIG. 10. For EMP delivery, 50 μL of the payload solution (1 mg/mL sodium fluorescein) was gently mixed with or without 5 mg of either the ‘short’ or ‘long’ EMP preparations. The samples were then scraped onto the surface of the skin. Administration was achieved by massaging the solution for 30 s using small circular motions within a 3 cm 2 circular area. To maintain consistency between administrations, a small hand-held applicator was designed resulting in an application force of 0.25 N (as described in AU2012905650). After administration, the payload was left on the skin for 5 min followed by removal of excess solution with cotton swabs. The centre of the application area was excised using a 6 mm circular punch biopsy. A total of 6 samples were done per group. Each sample was stored at −20° C. prior to analysis. […] FIG. 12d represents fluorescence confocal microscopy mosaic images of the pig skin with topical application of sodium fluorescein only (no EMP). […] The images in FIGS. 12d to 12l have been pseudo-colored in greyscale, where black corresponds to 0 (min) fluorescence intensity and white corresponds to 255 (max) fluorescence intensity, as shown on the scale superimposed on FIG. 12l.

[3] = tested on: in vivo pig skin
Method: FIG. 13 represents comparison of delivery of sodium fluorescein to in vivo pig skin. In vivo experiments were conducted on 6 female Landrace weaner pigs weighing approx. 10-15 kg (Centre for Advanced Animal Science, The University of Queensland Gatton Campus, Australia). The pigs were anaesthetized intramuscularly by co-administration of Butorphanol (0.15 mg/kg) and Zoletil (5 mg/kg) followed by intubation with isoflurane to maintain unconsciousness. Following anesthesia the flanks of the pigs were washed with soapy water and patted dry. The flank was then shaved gently using an electric razor. The flank was marked, to separate the application areas (2 cm diameter circles, 2 cm apart). Payload administration and amounts were done using the same parameters as for ex vivo. After all the groups/samples were applied and swabbed, the pig was turned over and the procedure repeated to the other flank (resulting in 12 samples per group). Finally, the pig was culled and the center of the application areas was excised using a 6 mm circular punch biopsy. Each sample was placed on dry-ice followed by storage at −20° C. prior to analysis.

[4] = tested on: volar forearm skin of human volunteers; conditions: in vivo
Text: In both Examples 4 and 5, elongate microparticles (EMPs) were fabricated from silicon using deep reactive ion etching. Lithography was used to pattern a silicon wafer that was then coated with SU-8 photoresist. After a post exposure bake, the resist was developed in […]. The SU8 structures remaining served as a physical mask during etching, which were etched using a Bosch process. The etched EMPs were washed three times in acetone, followed by three washes in 100% ethanol and lastly three times in distilled water. Prior to application the EMPs were removed from the silicon wafer.
The ability of silicon EMPs of various diameters to penetrate the skin was determined by application of a mixture of sodium fluorescein and EMPs to the volar forearm of four human, healthy volunteers using a plastic applicator as described in provisional patent application AU2012905650. 50 μL of the sodium fluorescein solution having a concentration of 1 mg/mL was mixed with 5 mg of silicon EMPs and applied to the forearm using a gentle massage motion with the applicator. […]
Three different populations of EMPs were used to assess the influence of EMP diameter on penetration and delivery. […] Grouped data was analysed using a one-way ANOVA with a Tukey's multiple comparison test.

[5] = tested on: excised human skin
Method: Both ex vivo and in vivo tissue samples were analysed en face using fluorescence (excited at 488 nm) and reflectance (excited at 750 nm) confocal microscopy (Vivascope® 1500 Multilaser, Lucid Inc., USA). The microscope also consisted of a dermatoscope, which was used to image and position the skin prior to microscopy. The samples were optically sectioned at 1.5 μm intervals from the surface of the skin down to a depth of 150 μm. Each optical slice consisted of a focal area of 500×500 μm^2.
In relation to the sodium fluorescein signal, an area 300×300 μm^2 in size was selected in the center of the image and the raw integrated density was measured throughout the entire stack. The data were then divided by the analysed area (9000 μm^2) resulting in the sodium fluorescein integrated density per μm^2.
A mixture was formed of by taking 50 μl of sodium fluorescein dye (1 mg/mL) and mixed with or without 5 mg of silica EMP This mixture was applied to previously frozen or freshly excised human skin under varying conditions of EMP length and/or application force.
The skin was stored at −20° C. and then brought to room temperature prior to use. […] It is measured by dividing the sodium fluorescein pixel intensity achieved with EMPs by the sodium fluorescein pixel intensity achieved without EMPs. […]

[6] = tested on: vaginal tracts of mice; conditions: mouse, in vivo
Method: In these in vivo mouse experiments, a 10 μl quantity of sodium fluorescein (1 mg/ml) was pipetted into the vaginal tracts of mice. In one group of mice, dye application occurred only after prior application of a small quantity of EMP (5 mg). The dye solution was gently massaged with a rod-like applicator. Vaginal tracts were removed at sacrifice and mounted for cryosectioning.

[7] = tested on: excised pig skin
Method: Excised pig ears sourced from a local abattoir were washed with soap and water followed by rinsing. The ears were stored at −20° C. until required. The ears were thawed and then gently shaved to remove excessive hair, then rinsed and pat dried. The ventral side of the ear was then separated from the cartilage using a scalpel. The excised skin was pinned down on a cork-board maintaining slight tension across the surface. For EMP delivery, 50 μL of the payload solution (1 mg/mL sodium fluorescein, 0.01 mCi/mL vitamin A or 0.01 mCi/mL, vitamin B3 respectively) was gently mixed with 5 mg of either the ‘short’ or ‘long’ EMP preparations. The samples were then scraped onto the surface of the skin.
Administration was achieved by massaging the payload mixture for 30 s using small circular motions within a 3 cm 2 circular area. […] After administration, the payload was left on the skin for 5 min followed by removal of excess solution with cotton swabs. The center of the application area was excised using a 6 mm circular punch biopsy. A total of 6 samples were done per group. Each sample was stored at −20° C. prior to analysis.
The integrated density of sodium fluorescein is directly related to the concentration of the drug within the skin. […] In this case, skin was pinned out taut on a cork board, epidermal side uppermost. Tritiated compound was applied to the skin surface and left for 15 minutes. […]

[8] = tested on: skin of human volunteers; conditions: in vivo
Method: Mixtures were formed by taking 50 μl of sodium fluorescein dye (1 mg/mL), with or without 5 mg of silica EMP. […] FIG. 18f refers to the sum of the total sodium fluorescein integrated density within the skin. The level of significance was accepted at p<0.05 based on a one-way ANOVA, Tukey's multiple comparison test.

## O=C([O-])c1ccccc1-c1c2ccc(=O)cc-2oc2cc([O-])ccc12.[Na+].[Na+] [sodium fluorescein]
[1]
  increase in delivery of sodium fluorescein dye across the stratum corneum: several-fold increase
[2]
  fluorescence detected below the surface of the skin: minimal fluorescence
[3]
  fluorescence detected below the surface of the skin: Minimal fluorescence
  sodium fluorescein signal: greater signal
[4]
  amount of sodium fluorescein detected: no significant difference
[5]
  amount of sodium fluorescein penetrated (into the stratum spinosum): greatest amount
  transdermal delivery of sodium fluorescein dye: greatly enhance
[6]
  penetration depth within the epithelium: about 60 μm
  penetration depth within the epithelium relative to delivery in the absence of EMP: more than 4 times
[7]
  enhancement of penetration of sodium fluorescein: superior ability
[8]
  penetration of topically applied sodium fluorescein: more lasting and deeper penetration
